Source: ChEMBL document CHEMBL1201862, “PubChem BioAssay data set” (2004)
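Method: 48-hour compound exposure of cells in 96-well plates, five concentrations, linear interpolation of endpoints. At the GI50, growth is halved.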 Calls of active or inactive are those of the source. Cut-off read from the data, not from the text of the source: active = GI50 up to about 1.1 µM and inactive = higher.

Key:
Assay in all cases: NCI-60 cell line screen, 48 h
[1] = tested on: TK-10
[2] = tested on: SF-539
[3] = tested on: A498
[4] = tested on: HT-29
[5] = tested on: OVCAR-5
[6] = tested on: SNB-75
[7] = tested on: HOP-92
[8] = tested on: COLO 205
[9] = tested on: M14
[10] = tested on: CAKI-1
[11] = tested on: Malme-3M
[12] = tested on: SW-620
[13] = tested on: CCRF-CEM
[14] = tested on: A549
[15] = tested on: EKVX
[16] = tested on: SK-MEL-28

Measured: GI50

O=C(O)/C(=C\c1ccccc1Cl)S(=O)(=O)c1ccccc1
inactive: [1] > 100 µM | [2] > 100 µM | [3] > 100 µM | [4] > 100 µM | [5] > 100 µM | [6] > 100 µM | [7] > 100 µM | [8] > 100 µM | [9] > 100 µM | [10] > 100 µM | [11] > 100 µM | [12] > 100 µM | [13] 14.5 µM | [14] > 100 µM

c1ccc2c(OCCSCCCCCCCCCCSCCOc3cccc4ccccc34)cccc2c1
inactive: [1] > 100 µM | [2] > 100 µM | [3] > 100 µM | [15] > 100 µM | [4] > 100 µM | [5] > 100 µM | [6] > 100 µM | [7] > 100 µM | [16] > 100 µM | [8] > 100 µM | [10] > 100 µM | [11] > 100 µM | [12] > 100 µM | [13] > 100 µM | [14] > 100 µM

CCOC(=O)/C(=C/c1ccc(C(=O)OC)cc1)N(CC)CC
inactive: [1] 71.6 µM | [2] 25.3 µM | [15] 35.4 µM | [5] > 100 µM | [7] 49.9 µM | [16] > 100 µM | [8] 70.1 µM | [9] 40.2 µM | [10] 41.6 µM | [11] 90.4 µM | [12] 35.3 µM | [13] 30.6 µM | [14] 24.5 µM

O=C(NOC(=O)c1ccc([N+](=O)[O-])cc1)c1ccc(Cl)cc1
inactive: [2] > 100 µM | [3] > 100 µM | [15] > 100 µM | [4] > 100 µM | [5] > 100 µM | [6] 15 µM | [7] 27.4 µM | [16] > 100 µM | [8] > 100 µM | [9] > 100 µM | [10] 39.6 µM | [11] > 100 µM | [12] 38 µM | [13] 28.2 µM | [14] > 100 µM

Cc1cc2c(C=O)n[nH]c2c(C#N)c1C
inactive: [1] > 100 µM | [2] 27.7 µM | [3] 29.2 µM | [15] > 100 µM | [4] 53.6 µM | [5] > 100 µM | [6] 7.43 µM | [7] 31.3 µM | [16] 48.4 µM | [8] > 100 µM | [9] 35.9 µM | [11] > 100 µM | [12] 40.6 µM | [13] > 100 µM | [14] > 100 µM

CC1(C)C(=NNC(=S)NN)C(C)(C)C1=NNC(=S)NN
inactive: [1] > 100 µM | [2] > 100 µM | [15] > 100 µM | [4] > 100 µM | [5] > 100 µM | [6] 98.4 µM | [7] > 100 µM | [16] > 100 µM | [8] > 100 µM | [9] > 100 µM | [10] > 100 µM | [11] > 100 µM | [12] > 100 µM | [13] 60.8 µM | [14] > 100 µM

O=C1c2ccccc2C(=O)N1C/C=N/NS(=O)(=O)c1ccc(Cl)cc1
inactive: [1] > 100 µM | [2] > 100 µM | [3] > 100 µM | [15] > 100 µM | [4] > 100 µM | [6] 66.1 µM | [8] > 100 µM | [9] > 100 µM | [10] > 100 µM | [11] > 100 µM | [12] > 100 µM | [13] > 100 µM | [14] > 100 µM

CCN(CC)C(=O)c1cccc2c(OC)ccc(OC)c12
inactive: [1] > 100 µM | [3] > 100 µM | [15] > 100 µM | [4] > 100 µM | [5] > 100 µM | [6] > 100 µM | [16] > 100 µM | [8] > 100 µM | [9] > 100 µM | [10] > 100 µM | [11] > 100 µM | [12] > 100 µM | [13] > 100 µM | [14] > 100 µM

CCOC(=O)COc1cccc2c1C(=O)CCO2
inactive: [1] > 100 µM | [2] > 100 µM | [3] > 100 µM | [15] > 100 µM | [4] > 100 µM | [5] > 100 µM | [16] > 100 µM | [8] > 100 µM | [9] > 100 µM | [10] > 100 µM | [11] > 100 µM | [12] > 100 µM | [13] > 100 µM | [14] > 100 µM

CN[C@@H](C)[C@@H](N)c1ccccc1
inactive: [1] > 100 µM | [2] > 100 µM | [3] > 100 µM | [15] > 100 µM | [4] > 100 µM | [6] 62.8 µM | [7] > 100 µM | [16] > 100 µM | [8] > 100 µM | [9] > 100 µM | [10] > 100 µM | [11] > 100 µM | [12] > 100 µM | [13] > 100 µM | [14] > 100 µM

CC/C(=N/O)c1ccc2[nH]c3c(C)cc([N+](=O)[O-])c(C)c3c2c1
inactive: [1] 15.2 µM | [2] 51.5 µM | [15] > 100 µM | [4] 37.4 µM | [5] > 100 µM | [6] 57.3 µM | [16] > 100 µM | [8] 71.4 µM | [9] 23.6 µM | [10] > 100 µM | [11] 51.3 µM | [12] 84.7 µM | [13] 15.1 µM | [14] 17.1 µM

CC#CC(OCC)(OCC)OCC
inactive: [1] > 100 µM | [2] > 100 µM | [3] > 100 µM | [15] > 100 µM | [4] > 100 µM | [5] > 100 µM | [6] > 100 µM | [7] > 100 µM | [16] > 100 µM | [8] 57.1 µM | [9] > 100 µM | [10] > 100 µM | [11] > 100 µM | [13] > 100 µM | [14] > 100 µM

COc1cccc(C2N3CCCCC3[C@@H]3c4[nH]c5ccccc5c4CCN23)c1OC (some centres not stated)
inactive: [1] 19.3 µM | [2] 15 µM | [3] 11.4 µM | [15] 17.9 µM | [4] 12.9 µM | [5] 15.9 µM | [7] 15.7 µM | [16] 16.8 µM | [8] 15.2 µM | [9] 16.1 µM | [10] 16.2 µM | [12] 17.3 µM | [13] 17.3 µM | [14] 15.8 µM

N#CCCN(c1ccc(/C=N/c2ccccc2Cl)cc1)S(=O)(=O)c1ccccc1
inactive: [1] > 100 µM | [2] > 100 µM | [3] > 100 µM | [15] > 100 µM | [4] > 100 µM | [5] > 100 µM | [6] > 100 µM | [7] > 100 µM | [16] > 100 µM | [8] > 100 µM | [9] > 100 µM | [10] > 100 µM | [11] > 100 µM | [12] > 100 µM | [14] > 100 µM

Nc1nc2sc3ccccc3c(=O)n2n1
inactive: [1] > 100 µM | [2] > 100 µM | [15] 64.7 µM | [4] > 100 µM | [5] > 100 µM | [6] > 100 µM | [7] > 100 µM | [16] > 100 µM | [8] > 100 µM | [9] > 100 µM | [10] > 100 µM | [11] > 100 µM | [12] > 100 µM | [13] > 100 µM | [14] > 100 µM

N#CC(Sc1ccccc1)C(N)=O (configuration not stated)
inactive: [1] > 100 µM | [2] > 100 µM | [3] > 100 µM | [15] > 100 µM | [4] > 100 µM | [5] > 100 µM | [6] > 100 µM | [7] > 100 µM | [8] > 100 µM | [9] > 100 µM | [10] > 100 µM | [11] > 100 µM | [12] > 100 µM | [13] > 100 µM | [14] > 100 µM

C/C(=C\Cc1cc(O)ccc1O)CCc1c(C)c(O)c(O)c(C=O)c1C [PANICEIN C]
inactive: [1] 48.2 µM | [2] 18.4 µM | [3] 49.2 µM | [15] 36.1 µM | [4] 29.2 µM | [6] 33.3 µM | [7] 15.7 µM | [16] 18.1 µM | [8] 18.6 µM | [9] 25.5 µM | [10] 26.7 µM | [11] 32.9 µM | [12] 35.6 µM | [13] 3.28 µM | [14] 30.4 µM

COc1ccc2cc3n(c2c1)CCc1cc(OC)c(OC)cc1-3
inactive: [1] > 100 µM | [2] > 100 µM | [3] 28.4 µM | [15] > 100 µM | [4] > 100 µM | [7] > 100 µM | [16] > 100 µM | [8] > 100 µM | [10] > 100 µM | [12] > 100 µM | [13] > 100 µM | [14] > 100 µM

C[C@@H](NC1CCCC[C@H]1O)c1ccccc1 (some centres not stated)
inactive: [1] > 100 µM | [2] > 100 µM | [3] > 100 µM | [15] > 100 µM | [4] > 100 µM | [6] 77.6 µM | [7] > 100 µM | [16] > 100 µM | [8] > 100 µM | [9] > 100 µM | [11] > 100 µM | [12] > 100 µM | [13] > 100 µM | [14] > 100 µM
